Series [1] is described as follows: Solubility and loading of PTX. The class given is physicochemical. How it is done:
The PEG-HCCs were purified by sequential dialysis in DMF and water. This was followed by passage through a PD-10 desalting column to remove any coordinated metals or unbound PEG. […] The particles were water soluble. See Berlin et al. for AFM data.
PEG-HCCs were loaded with PTX by dropwise addition of PTX in methanol (5 mg in 1 mL) to a rapidly stirring solution of PEG-HCCs in water (100 mg/L concentration of core HCCs, 5 mL). Next, the solution was bath-sonicated, concentrated to 3 mL by rotary evaporation (to remove the methanol), and then diluted back to the original volume (5 mL) with water. This provided a translucent solution of PTX non-covalently associated with PEG-HCCs (PTX/PEG-HCCs). […] In other words, it is visually apparent if PTX is precipitating because the solution becomes a milky white color when the PTX is overloaded. Applicants have observed that the maximum loading concentration of PTX in the PEG-HCCs in the experiments performed to date is about 12 mg/mL.

Series [2] concerns bEnd.3 cells. As to the kind of experiment: Antimycin A induced oxidative stress in bEnd.3 cells, DHE flow cytometry (Example 13.1). The note with it: treatment after Antimycin A. The class given is cell-based. The procedure: Mean fluorescence intensity (indicative of oxidative stress) was measured using as control viable cells of 4 separated experiments treated with Antimycin A (AntA) and stained with dihydroethidine (DHE) (“AntA+DHE”). Results are given as % control (unstained cells) to account for minor differences in DHE concentrations and laser fluctuations.
Accordingly, the next series of experiments employed flow cytometry to assess antioxidant effectiveness of PEG-HCCs and targeted PEG-HCCs in cultured brain endothelial cells (b.End3 cells). For these experiments, bEnd.3 cells were cultured to 50-80% confluence in 6 well plates in 2 mL of culture media. The cells were treated with 10 μL of 2 mM Antimycin A (AntA, shown to induce intracellular superoxide radical production). Five minutes later, 1×PBS, PEG-HCC, psPEG-HCC or super oxide dismutase (SOD) was added. The cells were then incubated at 37° C. for 5 minutes. At that time, either 2 μL of 10 mM DHE or a 50% DMSO solution in 1×PBS (control) was added to the wells. The cells were then incubated for another 30 minutes. Next, the cells were placed on ice, trypsinized, and washed twice. The cells were then, counted and stained with SytoxRed (viability stain). 10,000 cells were analyzed per treatment group using the TXRED channel (DHE) and SytoxRed to assess cell viability.
A general note: In flow cytometry, cells or beads pass a laser one at a time.

Data on two compounds can be found in patent publication US8916606B2, “Therapeutic compositions and methods for targeted delivery of active agents” (William Marsh Rice University, priority 2009, dated 2014).

Consider `CC(=O)O[C@H]1C(=O)[C@@]2(C)[C@H]([C@H](OC(=O)c3ccccc3)[C@]3(O)C[C@H](OC(=O)[C@H](O)[C@@H](NC(=O)c4ccccc4)c4ccccc4)C(C)=C1C3(C)C)[C@]1(OC(C)=O)CO[C@@H]1C[C@@H]2O` [PTX, Paclitaxel], for which, in series [1], the solubility in water entry is given as “insoluble in water”.
With `Cc1c(C)c2c(c(C)c1O)CCC(C)(C(=O)O)O2` (centres unmarked) [Trolox], in series [2], the “level of oxidative stress (DHE mean fluorescence intensity)” value is given as “not effective”.
